In paper PMC6394990, “Detailed characterization of the solution kinetics and thermodynamics of biotin, biocytin and HABA binding to avidin and streptavidin” (PLoS ONE, 2019):
Where “and” joins values, the source holds several entries; their conditions need not be identical. Identical values can stand only once. Like-named read-outs stand apart in the source and are kept apart here.

Target: T1, avidin (AV) (Gallus gallus, UniProt P02701)
T1 construct: purchased Calbiochem (La Jolla, CA)
Experiment: Stopped-flow association kinetics of dye-labeled biotin probes binding to avidin (F(t), rF(t); Arrhenius plots/global fitting)
Parameters: ln(k) / dS+ / dG+ / Eon for BFl / b of the line y = m1x+b1: unit not given here
Conditions: for k(average): k (full value); for ΔG^ǂ / ΔS^ǂ: forward; for kcal/mol (from Arrhenius slope): the values are: Ea forward; for Temperature at which the rate constants of AV and SAV reacting with BcO are the same, x: crossing of the AV and SAV lines; for half-time of association, rF¯(t) / halftime of association, rF¯(t): probe 20 nM; for half-time of association, rF¯(t): AV 260 nM
Protocol: These reactions were carried out in a buffered solution of 10 mM Tris-HCl, 100 mM KCl, 2.5 mM MgCl2 and 1 mM CaCl2 at pH 8 and only AV-BcO reactions included pH 9 and 10. The concentrations, after mixing, were of 20 nM of dye-labeled B7 probe and 260 nM, 520 nM or 1040 nM of AV; and 200 nM, 300 nM, 400 nM or 800 nM of SAV at temperatures of 10, 15, 20 and 25°C. The deglycosylation of AV (for comparative association reactions) was carried out using the provided standard protocol with endoglycosidase H [47], both with and without incubation of a denaturant solution (2% SDS and 1M 2-mercaptoethanol).
The reactions were collected with the SF instrument, described previously. The fluorescence signal was collected through a 520 nm interference filter (Oriel Corp., Stratford, CT) with a detector time constant and SF dead time of 1 μs and 1 ms, respectively. The excitation light was provided by the Coherent Ar^+ ion laser (described above) at 488 nm with […] of incident power on the reaction cuvette. The laser source was followed by the photo-elastic modulator described above with the axis oriented 45^o with respect to the electric vector of the incident light and with the half-wave modulation (50 kHz) set for 488 nm excitation. The demodulation circuitry following the photomultiplier provided a DC(t) and a rectified AC(t) which were converted to digital data by a high-speed digitizer (PCI-5122) from National Instruments (Austin, TX) with 14-bit resolution and 100 MHz bandwidth, through channels 0 and 1. The data acquisition was controlled by LabVIEW (Vr 8) software at a collection rate of 6120 data points/second and stored in spreadsheets. The AC(t) and DC(t) data were baseline corrected before obtaining the signal ratio (Eq 4) as a function of time (ρt).
The constant AGain is the instrumental amplitude gain and was evaluated by solving ρ(t) using the known steady state anisotropy (rss) of the complexes which is equivalent to the r(t) at t = ∞; and H, obtained from the equivalent grating factor (G) for the filters and photo multiplier tubes in the SF. For the probes used in here G was 0.82 and H = (1-G)/(1+G) = 0.099. Knowing Again and H, the AC(t) and DC(t) signals can be solved for r(t) and F(t) (Eqs 4 and 5) and the normalized fluorescence, F¯(t) , and corrected fluorescence anisotropy, rF¯(t), were obtained when F¯(0) and rF¯(0) were scaled to 1 at t = 0.
The F¯(t) (Eq 6) is equivalent to (I||) + 2 (I⊥) and proportional to quantum yield (QYi), molar absorptivity (εi) and to the formation or disappearance of the emitting species Xi(t); and rF¯(t) including the steady state anisotropies (rss) of each fluorescent species (Eq 7).
The possible reaction models were discriminated by the squared residuals of the observed and calculated association traces of both fluorescence and anisotropy fluorescence signals, F¯(t) and rF¯(t) , respectively.

T1 sequence (P02701 25-152): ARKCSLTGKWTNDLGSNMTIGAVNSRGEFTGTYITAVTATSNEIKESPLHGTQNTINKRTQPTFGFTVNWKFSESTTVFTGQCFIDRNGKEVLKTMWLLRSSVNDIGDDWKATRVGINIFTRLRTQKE

Compound: NC(CCCCNC(=O)CCCC[C@@H]1SC[C@@H]2NC(=O)N[C@@H]21)C(=O)NCCCCCNC(=O)c1ccc(-c2c3cc(F)c(=O)cc-3oc3cc(O)c(F)cc23)c(C(=O)O)c1 (stereo partly drawn) [BcO, Oregon green 488 Biocytin]
- kon (AV, pH 9, 15 (288.15 K), k (scaled)): 3.4e+06 M⁻¹ s⁻¹
- ln(k) (AV, pH 9, 20 (293.15 K)): 15.5
- k(average) (AV, pH 9, 20 (293.15 K)): 5.37E+06
- kon (AV, pH 9, 20 (293.15 K), k (scaled)): 5.4e+06 M⁻¹ s⁻¹
- ln(k) (AV, pH 9, 25 (298.15 K)): 15.9
- k(average) (AV, pH 9, 25 (298.15 K)): 7.85E+06
- kon (AV, pH 9, 25 (298.15 K), k (scaled)): 7.9e+06 M⁻¹ s⁻¹
- ΔG^ǂ (AV, pH 9): 4.7 ± 0.1 kcal/mol
- ΔS^ǂ (AV, pH 9): 30.9 ± 2.5 cal/°K·mol
- Ea^Forward (AV, pH 10): 14.9 ± 0.7 kcal/mol
- ln(k) (AV, pH10, 10 (283.15 K)): 14.5
- k(average) (AV, pH10, 10 (283.15 K)): 1.93E+06
- kon (AV, pH10, 10 (283.15 K), k (scaled)): 1.9e+06 M⁻¹ s⁻¹
- ln(k) (AV, pH10, 15 (288.15 K)): 14.9
- k(average) (AV, pH10, 15 (288.15 K)): 2.97E+06
- kon (AV, pH10, 15 (288.15 K), k (scaled)): 3e+06 M⁻¹ s⁻¹
- ln(k) (AV, pH10, 20 (293.15 K)): 15.4
- k(average) (AV, pH10, 20 (293.15 K)): 4.75E+06
- kon (AV, pH10, 20 (293.15 K), k (scaled)): 4.7e+06 M⁻¹ s⁻¹
- ln(k) (AV, pH10, 25 (298.15 K)): 15.8
- k(average) (AV, pH10, 25 (298.15 K)): 7.23E+06
- kon (AV, pH10, 25 (298.15 K), k (scaled)): 7.2e+06 M⁻¹ s⁻¹
- ΔG^ǂ (AV, pH 10): 4.7 ± 0.3 kcal/mol
- ΔS^ǂ (AV, pH 10): 34.1 ± 1.3 cal/°K·mol
- slope (Arrhenius linear fit) (AV, ph8): -7283
- slope (Arrhenius linear fit) (AV, ph9): -6979.6
- kcal/mol (from Arrhenius slope) (AV, ph9): 13.9 kcal/mol
- slope (Arrhenius linear fit) (AV, ph10): -7486
- kcal/mol (from Arrhenius slope) (AV, ph10): 14.9 kcal/mol
- Temperature at which the rate constants of AV and SAV reacting with BcO are the same, x: 52.1 °C
- Temperature at which the rate constants of AV and SAV reacting with BcO are the same, x (x=(b1-b2)/(m2-m1) inverted): 325.2 °K
- kon (pH 8, AV 260 nM, 10°C, pH 8, read-out: kon AV-BcO F¯(t)): 2.4e+06 ± 100000 M⁻¹ s⁻¹
- kon (pH 8, AV 260 nM, 10°C, pH 8, read-out: kon AV-BcO r¯F(t)): 2.7e+06 ± 100000 M⁻¹ s⁻¹
- kon (pH 8, AV 260 nM, 15°C, pH 8, read-out: kon AV-BcO F¯(t)): 4.1e+06 ± 100000 M⁻¹ s⁻¹
- kon (pH 8, AV 260 nM, 15°C, pH 8, read-out: kon AV-BcO r¯F(t)): 4e+06 ± 100000 M⁻¹ s⁻¹
- kon (pH 8, AV 260 nM, 20°C, pH 8, read-out: kon AV-BcO F¯(t)): 5.7e+06 ± 100000 M⁻¹ s⁻¹
- kon (pH 8, AV 260 nM, 20°C, pH 8, read-out: kon AV-BcO r¯F(t)): 5.9e+06 ± 100000 M⁻¹ s⁻¹
- kon (pH 8, AV 260 nM, 25°C, pH 8, read-out: kon AV-BcO F¯(t)): 9.5e+06 ± 100000 M⁻¹ s⁻¹
- kon (pH 8, AV 260 nM, 25°C, pH 8, read-out: kon AV-BcO r¯F(t)): 9.5e+06 ± 100000 M⁻¹ s⁻¹
- kon (pH 8, AV 520 nM, 10°C, pH 8, read-out: kon AV-BcO F¯(t)): 2.6e+06 ± 200000 M⁻¹ s⁻¹
- kon (pH 8, AV 520 nM, 10°C, pH 8, read-out: kon AV-BcO r¯F(t)): 2.7e+06 ± 100000 M⁻¹ s⁻¹
- kon (pH 8, AV 520 nM, 15°C, pH 8, read-out: kon AV-BcO F¯(t)): 4e+06 ± 100000 M⁻¹ s⁻¹
- kon (pH 8, AV 520 nM, 15°C, pH 8, read-out: kon AV-BcO r¯F(t)): 3.8e+06 ± 100000 M⁻¹ s⁻¹
- kon (pH 8, AV 520 nM, 20°C, pH 8, read-out: kon AV-BcO F¯(t)): 5.9e+06 ± 300000 M⁻¹ s⁻¹
- kon (pH 8, AV 520 nM, 20°C, pH 8, read-out: kon AV-BcO r¯F(t)): 5.8e+06 ± 100000 M⁻¹ s⁻¹
- kon (pH 8, AV 520 nM, 25°C, pH 8, read-out: kon AV-BcO F¯(t)): 9.5e+06 ± 300000 M⁻¹ s⁻¹
- kon (pH 8, AV 520 nM, 25°C, pH 8, read-out: kon AV-BcO r¯F(t)): 9.5e+06 ± 100000 M⁻¹ s⁻¹
- kon (pH 8, AV 1040 nM, 10°C, pH 8, read-out: kon AV-BcO F¯(t)): 2.5e+06 ± 200000 M⁻¹ s⁻¹
- kon (pH 8, AV 1040 nM, 10°C, pH 8, read-out: kon AV-BcO r¯F(t)): 2.7e+06 ± 100000 M⁻¹ s⁻¹
- kon (pH 8, AV 1040 nM, 15°C, pH 8, read-out: kon AV-BcO F¯(t)): 3.9e+06 ± 200000 M⁻¹ s⁻¹
- kon (pH 8, AV 1040 nM, 15°C, pH 8, read-out: kon AV-BcO r¯F(t)): 4e+06 ± 200000 M⁻¹ s⁻¹
- kon (pH 8, AV 1040 nM, 20°C, pH 8, read-out: kon AV-BcO F¯(t)): 6e+06 ± 100000 M⁻¹ s⁻¹
- kon (pH 8, AV 1040 nM, 20°C, pH 8, read-out: kon AV-BcO r¯F(t)): 6.1e+06 ± 100000 M⁻¹ s⁻¹
- kon (pH 8, AV 1040 nM, 25°C, pH 8, read-out: kon AV-BcO F¯(t)): 9.7e+06 ± 300000 M⁻¹ s⁻¹
- kon (pH 8, AV 1040 nM, 25°C, pH 8, read-out: kon AV-BcO r¯F(t)): 9.4e+06 ± 200000 M⁻¹ s⁻¹
- kon (pH 8, AV, Arrhenius plot, 23°C and pH 8, read-out: kon): 7.8e+06 ± 4e+11 M⁻¹ s⁻¹
- kon (pH 8, AV, pH 8, 10°C, read-out: kon): 2.6e+06 ± 300000 M⁻¹ s⁻¹
- kon (pH 8, AV, pH 8, 15°C, read-out: kon): 3.9e+06 ± 300000 M⁻¹ s⁻¹
- kon (pH 8, AV, pH 8, 20°C, read-out: kon): 5.9e+06 ± 400000 M⁻¹ s⁻¹
- kon (pH 8, AV, pH 8, 25°C, read-out: kon): 9.5e+06 ± 400000 M⁻¹ s⁻¹
- kon (pH 9, AV, pH 9, 10°C, read-out: kon): 2.3e+06 ± 100000 M⁻¹ s⁻¹
- kon (pH 9, AV, pH 9, 15°C, read-out: kon): 3.4e+06 ± 100000 M⁻¹ s⁻¹
- kon (pH 9, AV, pH 9, 20°C, read-out: kon): 5.4e+06 ± 200000 M⁻¹ s⁻¹
- kon (pH 9, AV, pH 9, 25°C, calculated from an Arrhenius plot, read-out: kon): 7.9e+06 ± 300000 M⁻¹ s⁻¹
- kon (pH 10, AV, pH 10, 10°C, read-out: kon): 1.9e+06 ± 100000 M⁻¹ s⁻¹
- kon (pH 10, AV, pH 10, 15°C, read-out: kon): 3e+06 ± 100000 M⁻¹ s⁻¹
- kon (pH 10, AV, pH 10, 20°C, read-out: kon): 4.8e+06 ± 200000 M⁻¹ s⁻¹
- kon (pH 10, AV, pH 10, 25°C, calculated from an Arrhenius plot, read-out: kon): 7.2e+06 ± 300000 M⁻¹ s⁻¹
- half-time of association, rF¯(t) (pH 8, 10°C): 1024 ms
- half-time of association, rF¯(t) (pH 8, 15°C): 695 ms
- half-time of association, rF¯(t) (pH 8, 20°C): 452 ms and 455 ms
- half-time of association, rF¯(t) (pH 8, 25°C): 280 ms
- halftime of association, rF¯(t) (AV 520 nM, pH 8, 20°C): 229 ms
- halftime of association, rF¯(t) (AV 1040 nM, pH 8, 20°C): 109 ms
- kon (untreated AV, 15°C, read-out: kon): 3.9e+06 M⁻¹ s⁻¹
